Reference: patent publication US20070099250A1, “Methods for treating proliferative diseases and for monitoring the effectiveness of treatment of proliferative diseases” (priority 2003, published 2007)

Assays:
[1] = test system: OP18 Ser25 phosphorylation; test: Western blot analysis of Raf-inhibitor-treated HCT116 cell lysates, phospho-Ser25 specific OP18 antibody; assay type: cell-based, human
Experimental: HCT1 16 cells are prepared. as in Example 1 above and treated with a Raf inhibitor (BPMI) for 1.5 hr. Cells are lysed in Incomplete Laemmli buffer (0.1 IM Tris.Cl pH 7.0, 4% SDS, 10% glycerol), and passed through a syringe fitted with 25 gauge needle to break apart genomic DNA. The lysate is boiled for 5 minutes, and loaded onto 10% SDS-PAGE gel. Proteins in the SDS-PAGE gel are then transferred to nitrocellulose membrane. The membrane is blocked with 5% milk for 1 hr, and incubated with the an antibody specific for Ser^25 phosphorylated OP18 for an additional hour. The phosphor-Ser^25 specific OP18 antibody is raised in rabbit using standard techniques and purification known in the art. The amino acid sequence used to generate phosphor-Ser^25 specific OP18 antibody is ELILpSPRSKESVPEFP (SEQ ID NO:_). The blot is washed three times with TBST 15 minutes each, and then incubated with anti-rabbit HRP-conjugated antibody for 1 hr. The blot is washed three times with TBST 15 minutes each, and the antibody bound proteins are labeled using SuperSignal West Dura Extended Duration substrate (Piece Biotechnologies, Rockford, Ill.). The phosphorylated OP18 proteins are detected via exposing the blot through a film (Eastman Kodak, Rochester, N.Y.).
(§1) The treatment of HCT116 cells with BPMI leads to the inhibition of OP18 phosphorylation at Ser^25 residue (data not shown). […] Additional data also provides that BPMI inhibits OP18 Ser^25 phosphorylation with an IC50 of approximately 5 μM. Thus, it appears that both MAPK and OP18 Ser^25 phosphorylation are inhibited at a similar level for a given dose of a raf inhibitor.

Oncogene EMS1 [2] = test: Inverse labeling-MS analysis of DU145 tumor tissue lysates, mouse tumor xenograft, in vivo BPMI; details: 1 hour BPMI treatment, 200 mg/kg p.o.
Experimental: (§2) The phosphoproteome mapping method is further tested/applied to an in vivo study of the Raf inhibitor, BPMI (one-hour treatment, 200 mg/kg p.o.), in the analysis of tissue lysates of mouse tumor xenograft.
(§3) The methyl esterification/IMAC procedure is successful in removing the blood contamination from the tissue samples. […] Additional changes in phosphorylation are also detected which includes oncogene EMS1, mouse fetuin and Epithelial-cadherin (see Table 2).

Oncoprotein 18 [3] = test: as above; details: for Change (treated/control) in phosphorylation / Change in phosphorylation, % down: DU145 tumor tissue, 1 hour BPMI treatment, 200 mg/kg p.o.
Experimental: as §2, §3

[4] = test system: Epithelial-cadherin (mouse/human); test: as above; details: 1 hour BPMI treatment, 200 mg/kg p.o., phosphopeptide MRDWVIPPIpSCPENEK
Experimental: as §2, §3

Mouse fetuin = test: as above; details: 1 hour BPMI treatment, 200 mg/kg p.o., phosphopeptide VoxMHTQCHSTPDpSAEDVR
Experimental: as §2, §3

[5] = test system: MAPK pathway in HCT116 cells; test: Inhibition of MAPK pathway in HCT116 cells; assay type: cell-based, human
Experimental: as §1

Oncogene EMS1 [6] = test: Inverse labeling-MS phosphopeptide analysis of HCT116 cell lysate treated with BPMI; assay type: cell-based, human; details: HCT116 cells, 20 μM BPMI, 1.5 hours
Experimental: (§4) Human colorectal cell line HCT116 cells are grown in 6-well plates. Prior to harvesting, the cells are treated with 20 μM of the Raf inhibitor BPMI and DMSO control for 1.5 hours, respectively. Cells are then rinsed with PBS, and lysed for 5 minutes at 4° C. in Doriano lysis buffer with 100 μg/mL Perfabloc/2 μg/mL aprotinin/2 μg/mL leupeptin/1 mM NaVO4/10 mM NaF. The supernatant of the lysates are collected after centrifugation at 3,000 rpm for 5 minutes. The protein concentration is determined using Bio-Rad reagent, and the lysates are frozen at −80° C. prior to fkrther processing and analysis.
(§5) One μL of RNase A (20 mg/mL, Sigma, St Louis, Mo.) and 1 μL of RNase T1 (10 units/mL, Invitrogen, Carlsbad, Calif.) are added to each 1 mL of lysates (total 3 mg of HCT116-DMSO control and 3 mg of HCT116-BPMI, respectively), and incubated at 37° C. for half an hour to degrade RNAs. Proteins are denatured using 6 M guanidine HCl, followed by reduction with 20 mM 1,4-dithio-DL-threitol (DTT) at 58° C. for 40 minutes and alkylation with 40 mM iodoacetamide at room temperature for 30 minutes in the dark. Each protein solution is transferred to a Slide-A-Lyzer (10,000 MW cutoff, Pierce, Rockford, IL) dialysis cassette and dialyzed against 2 to 0 M urea/50 mM ammonium bicarbonate to remove small molecule impurities and buffer exchange to 50 mM ammonium bicarbonate. Proteolysis is carried out using modified, sequencing grade trypsin (Promega, Madison, Wiss.) at a 1:200 trypsin-to-protein ratio (wt:wt) in 50 mM ammonium bicarbonate at 37° C. overnight.
(§6) The peptide digests are filtered through Centricon Filters (10,000 MW cutoff, Millipore, Bedford, Mass.) to remove large molecule impurities including detergents. Flow-through (peptides) is collected. Solvent and ammonium bicarbonate are subsequently removed by SpeedVac drying.
(§7) d0- or d3-methanolic HCl (2M) (methyl esterification reagent) is prepared by adding 160 μL of acetyl chloride to 1 niL of anhydrous d0-methyl alcohol or d3-methyl d-alcohol drop wise while stirring. After 10 minutes, 1 mL of the methyl esterification reagent is added to 1.5 mg of lyophilized peptide mixture. The reaction is performed in parallel to two identical aliquots for every sample, one using d0-reagent and one using d3-reagent, respectively. The reaction is allowed to proceed at room temperature for 30 minutes. The excess reagents are removed by SpeedVac drying. Subsequently the peptide mixtures are reconstituted with water. The inverse labeling is achieved by mixing d0-control with d3-treated (BPMI) and d3-control with d0-treated.
(§8) Enrichment of phosphopeptides is performed on a 2.1×30 mm IMAC column (POROS 20 MC, Applied Biosystems, Foster City, Calif.). Briefly, the column is washed with water, 100 mM EDTA in 1 M NaCl, followed by water and 1% acetic acid. The column is then activated with 100 mM FeCl3. […] of the inversely labeled methyl esterified peptide mixture (500 μg each form of d0 and d3) is dissolved in 1% acetic acid in 50% acetonitrile/water, and loaded onto iron-activated IMAC column. The unbound peptides are removed by washing with 1% acetic acid in 50% acetonitrile/water. The bound phosphopeptides are eluted with 2% ammonium hydroxide in 50% acetonitrile/water (pH approximately 9 to 10). Acetic acid is added to neutralize the eluent prior to SpeedVac drying. The phosphopeptide mixture is reconstituted with 0.1% formic acid and analyzed using capillary LC/MS, as described below.
(§9) An Ultimate capillary/nano HPLC system (LC Packings, San Francisco, Calif.) with a Swichos micro column-switching module (LC Packings, San Francisco, Calif.) is used for analysis. Separation is carried out on a 0.18×150 mm capillary column, packed with 3 μm C18 stationary phase of 300-Å pore size (PepMap, LC Packings, San Francisco, Calif.), operating at a flow rate of 2 μL/min. Mobile phase A consists of 0.1% (v/v) formic acid in water and mobile phase B of 0.1% (v/v) formic acid in acetonitrile. […]

Oncoprotein 18 [7] = test: as above; assay type: cell-based, human; details: for Change (treated/control) in phosphorylation / Change in phosphorylation, % down: HCT116 cells, 20 μM BPMI, 1.5 hours
Experimental: as §4, §5, §6, §7, §8, §9

[8] = test system: Heat-shock 110 kD protein; test: as above; assay type: cell-based, human; details: HCT116 cells, 20 μM BPMI, 1.5 hours; phosphopeptide IEpSPKLER
Experimental: as §4, §5, §6, §7, §8, §9

[9] = phosphopeptide LPS*pSPVYEDAASFK
[10] = phosphopeptide T*QpTPPVpSPAPQPTEER

## CC(C)(C)c1ccc(Nc2ncc(Cc3ccncc3)c3ccccc23)cc1 [BPMI, 1-(4-t-butylanilino)-4-[(pyridin-4-yl)-methyl]-isoguinoline]
[1]; HCT116 cells, 1.5 hr treatment (data not shown)
  OP18 phosphorylation at Ser25 residue, Western blot: inhibition
[1]; HCT116 cells, at 10 μM
  Phosphorylation seen at Ser25 residue of the OP18 protein, Western blot: almost no phosphorylation
[1]; additional data, read-out: IC50 for inhibition of OP18 Ser25 phosphorylation
  IC50: ~5 µM
Oncogene EMS1 [2]; [9]
  Change (treated/control) in phosphorylation: 0.7
  Change in phosphorylation, % down: (30% down)
Oncogene EMS1 [2]; [10]
  Change (treated/control) in phosphorylation: 0.6
  Change in phosphorylation, % down: (40% down)
Oncoprotein 18 [3]; phosphopeptide ASGQAFELILpSPR
  Change (treated/control) in phosphorylation: 0.4
  Change in phosphorylation, % down: (60% down)
Oncoprotein 18 [3]; phosphopeptide SKESVPEFPLpSPPK
  Change (treated/control) in phosphorylation: 0.8
  Change in phosphorylation, % down: (20% down)
Oncoprotein 18 [3]; tumor tissue DU145, methyl esterification/IMAC
  OP18 Ser25 phosphorylation in vivo (FIG. 2B): down-regulation
[4]
  Change (treated/control) in phosphorylation: 0.5
  Change in phosphorylation, % down: (50% down)
Mouse fetuin
  Change (treated/control) in phosphorylation: 0.6
  Change in phosphorylation, % down: (40% down)
[5]
  IC50: 5.3 µM
Oncogene EMS1 [6]; [9]
  Change (treated/control) in phosphorylation: 0.8
  Change in phosphorylation, % down: (20% down)
Oncogene EMS1 [6]; [10]
  Change (treated/control) in phosphorylation: 0.7
  Change in phosphorylation, % down: (30% down)
Oncoprotein 18 [7]; HCT116 cell lysate, inverse labeling-MS
  Op18 Ser25 phosphorylation upon BPMI treatment (FIG. 1): Down-regulation
Oncoprotein 18 [7]; phosphopeptide ASGQAFELILpSPR
  Change (treated/control) in phosphorylation: 0.4
  Change in phosphorylation, % down: (60% down)
Oncoprotein 18 [7]; phosphopeptide SKESVPEFPLpSPPK
  Change (treated/control) in phosphorylation: 0.6
  Change in phosphorylation, % down: (40% down)
[8]
  Change (treated/control) in phosphorylation: 0.7
  Change in phosphorylation, % down: (30% down)
